Data: patent US12258338B2, “Modulators of the integrated stress response pathway” (EVOTEC INTERNATIONAL GMBH, priority 2019, dated 2025)
Values after ≈ are worked out from the molar mass of the structure shown. Where two headings read alike, the source gives them in different places.

How the values were obtained:
ATF4 = test: HEK-ATF4 High Content Imaging assay (prevention of Tunicamycin induced ISR; ATF4 signal ratio between nucleus and cytoplasm); type: cell-based
Summary of the method: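 Wild-type HEK293 cells in 0.3% FBS medium were co-treated with compounds and Tunicamycin (3.3 μM in prediluted medium, 11-fold over final) for 6 h at 37 °C. Fixed cells were immunostained for ATF4 with Hoechst nuclei; imaging gave nuclear/cytoplasmic ATF4 ratio, with nuclei counts as toxicity control.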

[1] = target: T1, human ERG potassium channel (hERG) (Homo sapiens, UniProt Q12809); test: hERG channel tail current recording using in vitro Rapid ICE (automated patch-clamp, QPatch HTX); type: cell-based
T1 construct: expressed in transfected cells; host or cells: HEK293, stably transfected, tetracycline-inducible promoter
T1 sequence (Q12809 whole entry): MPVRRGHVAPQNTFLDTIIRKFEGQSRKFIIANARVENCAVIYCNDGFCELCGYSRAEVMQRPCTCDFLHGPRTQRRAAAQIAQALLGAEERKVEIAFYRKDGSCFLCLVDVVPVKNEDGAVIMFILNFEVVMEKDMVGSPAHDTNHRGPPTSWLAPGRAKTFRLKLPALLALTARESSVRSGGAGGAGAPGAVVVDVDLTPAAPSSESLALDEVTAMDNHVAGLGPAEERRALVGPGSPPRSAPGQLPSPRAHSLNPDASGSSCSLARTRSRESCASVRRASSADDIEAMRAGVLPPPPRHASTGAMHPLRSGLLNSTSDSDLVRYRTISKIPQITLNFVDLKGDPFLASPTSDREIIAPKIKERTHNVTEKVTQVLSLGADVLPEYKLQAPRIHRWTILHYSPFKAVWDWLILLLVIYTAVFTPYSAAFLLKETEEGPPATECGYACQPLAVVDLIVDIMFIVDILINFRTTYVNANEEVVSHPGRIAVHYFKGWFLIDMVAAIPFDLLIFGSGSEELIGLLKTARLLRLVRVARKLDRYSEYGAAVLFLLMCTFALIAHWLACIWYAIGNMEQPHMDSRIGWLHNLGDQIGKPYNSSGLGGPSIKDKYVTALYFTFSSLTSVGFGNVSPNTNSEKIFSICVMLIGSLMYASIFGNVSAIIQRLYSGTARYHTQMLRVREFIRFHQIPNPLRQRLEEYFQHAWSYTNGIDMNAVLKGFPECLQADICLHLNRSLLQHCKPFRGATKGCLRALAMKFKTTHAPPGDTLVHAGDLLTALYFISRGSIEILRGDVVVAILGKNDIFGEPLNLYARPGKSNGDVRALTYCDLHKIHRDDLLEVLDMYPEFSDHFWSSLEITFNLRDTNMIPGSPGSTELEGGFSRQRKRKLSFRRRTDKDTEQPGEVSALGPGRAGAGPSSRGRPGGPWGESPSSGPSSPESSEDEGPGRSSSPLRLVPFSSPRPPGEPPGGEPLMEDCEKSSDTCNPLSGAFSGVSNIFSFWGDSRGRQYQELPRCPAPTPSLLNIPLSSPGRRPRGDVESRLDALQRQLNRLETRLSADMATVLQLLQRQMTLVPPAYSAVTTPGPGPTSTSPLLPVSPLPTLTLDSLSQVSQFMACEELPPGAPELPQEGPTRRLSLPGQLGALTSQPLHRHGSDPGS
Summary of the method: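 Automated patch clamp on tetracycline-induced HEK293 hERG cells; pulse −80 to −50 mV 200 ms, +20 mV 4.8 s, −50 mV 5 s tail, extracellular pH 7.4. Compound at 0.3, 3, 30 μM (0.3% DMSO), 5 min exposure; tail current versus vehicle gives % inhibition and estimated IC50.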

[2] = Log D 7.4 assay (1-octanol / phosphate buffer pH 7.4); type: physicochemical
Method: Phosphate buffer (1 M) was diluted to 20 mM with deionised water and adjusted to pH 7.4 (±0.05) with phosphoric acid or sodium hydroxide. A 1:1 mixture of phosphate buffer (20 mM) and 1-octanol were saturated by tumbling overnight after which time the two phases were separated. Using an automated liquid handler the following procedure was carried out: 20 mM DMSO stocks of assay and control compounds were reformatted to provide cassettes of 4 compounds per well giving a final concentration of 5 mM per compound. In duplicate 5 μL of the cassetted compounds were added to 495 μL 1-octanol (saturated with buffer) followed by 495 μL of buffer (saturated with 1-octanol) in a 96-well plate giving final incubation concentrations of 25 μM (50 μM max concentration in either layer if all compound partitioned into a single matrix). The layers were mixed by aspirating and dispensing the buffer and octanol layers into one another three times. The plate was sealed, shaken for 120 minutes and then centrifuged at 25° C. for 15 min at 4600 rpm. The 1-octanol and buffer layer were sampled separately (ensuring no cross contamination) and the respective samples diluted with 60:40 ACN:0.1 M ammonium acetate pH 7.4 (containing external standard; Sulfisoxazole, assay concentration 120 nM) to obtain final theoretical maximum concentrations of the 1-octanol layer of 0.025 μM, 0.5 μM and a buffer layer concentration of 0.5 μM. The second buffer sample was prepared by diluting the assay buffer layer with acetonitrile (containing external standard; Sulfisoxazole, assay concentration 120 nM) to give a theoretical maximum concentration of 20 μM. The analytical samples were analysed by LC-MS/MS and the Log D calculated as shown:
[formula] Where PA=Peak area and ES=External standard

[3] = Thermodynamic (Equilibrium) solubility in selected buffer; type: physicochemical; conditions: aqueous buffer, thermodynamic from solid
Summary of the method: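 Powdered compound at 1 mg/mL target in 50 mM phosphate pH 2.0, 50 mM acetate pH 5.5 or 50 mM phosphate pH 7.4, stirred overnight at r.t. in the dark, then 0.45 μm filtered. Filtrate quantified by UPLC-UV peak area against a 0.8 mg/mL DMSO reference.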

[4] = Table 24 category key, read-out: HEK-ATF4 Activity*
[5] = acetate buffer 50 mM, pH 5, Table 24, read-out: Solubility (μg/mL) pH 5
[6] = phosphate buffer 50 mM, pH 2, Table 24, read-out: Solubility (μg/mL) pH 2
[7] = phosphate buffer 50 mM, pH 7.4, Table 24, read-out: Solubility (μg/mL) pH 7.4

SMILES | IC50 (ATF4; [4]) [nM] | IC50 ([1]; Table 24) [nM] | logD at 120 min [2] | solubility [3, 5] [µg/mL] | solubility [3, 6] [µg/mL] | solubility [3, 7] [µg/mL] | IC50 (ATF4; Homo sapiens, Wild-type HEK293 cells, Tunicamycin induced ISR, 6 h, read-out: IIEK-ATF4 Activity) [nM] | IC50 ([1]; Table 26) [nM] | solubility ([3]; acetate buffer 50 mM, pH 5.5, Table 25, read-out: Solubility (μg/mL) pH 5.5) [µg/mL] | solubility ([3]; phosphate buffer 50 mM, pH 2.0, Table 25, read-out: Solubility (μg/mL) pH 2.0) [µg/mL] | solubility ([3]; phosphate buffer 50 mM, pH 7.4, Table 25, read-out: Solubility (μg/mL) pH 7.4) [µg/mL]
O=C(COc1ccc(Cl)c(F)c1)N[C@@H]1CC[C@@H](c2nnc(COC(F)(F)F)o2)OC1 [WO201904 6779 Ex 30, reference compound] | 500 to 2000 | 1 to 1000 | 2.9 | 3 (≈ 6.61 µM) | 3 (≈ 6.61 µM) | 3 (≈ 6.61 µM) |  |  |  |  | 
O=C(COc1ccc(Cl)c(F)c1)N[C@@H]1CC[C@@H](c2nnc([C@H]3C[C@@H](OC(F)(F)F)C3)o2)OC1 [WO201904 6779 Ex 1, reference compound] | 1 to 500 | 1000 to 5000 | 3.6 | < 1 | < 1 | < 1 |  |  |  |  | 
O=C(COc1ccc(Cl)c(Cl)c1)N[C@H]1CC[C@H](c2nnc([C@H]3C[C@@H](OC(F)F)C3)o2)NC1 [Example 60, 2-(3,4-dichlorophenoxy)-N-[(3S,6R)-6-(5-[(1s,3s)-3-(difluoromethoxy)cyclobutyl]-1,3,4-oxadiazol-2-yl}piperidin-3-yl]acetamide] |  |  |  |  |  |  | 1 to 500 | 1 to 1000 | 47 (≈ 95.7 µM) | 886 (≈ 1800 µM) | 91 (≈ 185 µM)
